We go through 8 compounds from ChEMBL document CHEMBL1130554, “BMS-200475, a novel carbocyclic 2-deoxyguanosine analog with potent and selective anti-hepatitis B virus activity in vitro” (Bioorg Med Chem Lett, 1997).

A value given as a limit tells only on which side of the number the result lay.

The subject of assay [1] is HepG2. Nature of the assay: Tested for the effective concentration required to inhibit HBV in HepG2.2.15 human liver cells. It counts as functional, cell-based.
The subject of assay [2] is WI-38. Nature of the assay: Tested for cytotoxic concentration against herpes simplex virus type 1 (HSV-1) in WI-38 cells. It counts as functional. The conditions noted are these: Homo sapiens.
Assay [3] concerns WI-38. As to the kind of experiment: Tested for effective concentration required to inhibit herpes simplex virus type 1 (HSV-1) in WI-38 cells. As to conditions: Homo sapiens. The class given is functional, cell-based.
The subject of assay [4] is WI-38. As to the kind of experiment: Tested for cytotoxic concentration against varicella zoster virus (VZV) in WI-38 cells. It counts as functional. As to conditions: Homo sapiens.
Assay [5] relates to CEM-SS. As to the kind of experiment: Tested for effective concentration to inhibit human immunodeficiency virus (HIV) in CEM-SS cells. It counts as functional, cell-based.
Assay [6] can be described thus: Tested for effective concentration required to inhibit of influenza virus in MDBK cells. It counts as functional, cell-based, Bos taurus.
Assay [7] deals with Hepatitis B virus. Nature of the assay: Tested effective dose against hepatitis B virus in vitro. The class given is functional. The conditions noted are these: read-out: ED50 (the source's name).
Assay [8] relates to WI-38. As to the kind of experiment: Tested for effective concentration required to inhibit varicella zoster virus (VZV) in WI-38 cells; 30-60. The class given is functional, cell-based. The conditions noted are these: Homo sapiens.
A short description of assay [9]: Tested for cytotoxic concentration against influenza virus in MDBK cells. It counts as functional. As to conditions: Bos taurus.
Assay [10] concerns HepG2. Nature of the assay: Tested for the cytotoxicity against hepatitis B virus (HBV) in HepG2.2.15 cells. The class given is functional. As to conditions: Homo sapiens.
Assay [11] concerns CEM-SS. As to the kind of experiment: Tested for cytotoxic concentration against human immunodeficiency virus (HIV) in CEM-SS cells. The class given is functional.
In assay [12] the test system is HFF. As to the kind of experiment: Tested for effective concentration required to inhibit human cytomegalovirus (HCMV) in HFF cells. The class given is functional, cell-based.
The subject of assay [13] is Hepatitis B virus. Nature of the assay: Tested for cytotoxic concentration against hepatitis B virus. It counts as functional.

`Nc1ccn([C@@H]2CS[C@H](CO)O2)c(=O)n1` [LAMIVUDINE] yielded an EC50 in [1] of 0.2 µM.

In turn, `Nc1nc(O)c2ncn([C@@H]3C[C@H](CO)[C@@H](O)C3)c2n1` displayed an EC50 in [1] of 0.05 µM.

`C=C1[C@@H](CO)[C@H](O)C[C@H]1n1cnc2c(O)nc(N)nc21` showed an EC50 in assay [1] of 100 µM.

For `C=C1[C@H](CO)[C@@H](O)C[C@@H]1n1cnc2c(=O)[nH]c(N)nc21` [ENTECAVIR], the CC50 (usually the concentration that lowers cell viability or growth by half) in [2] is above 90 µM; in assay [4] it was 120 µM; in assay [9], 78 µM; in [10] it was 30 µM; in assay [11], 21 µM; in assay [13], 21 µM. For the same compound, the EC50 in assay [3] was at least 32 µM; in [1], 0.003 µM; in [5], above 10 µM; in assay [6] it was above 80 µM; in [7], 0.003 µM; in assay [8], 30 µM. Moreover, the EC50 in [12] was determined as 15 µM.

Compound `C=C1[C@H](CO)[C@@H](O)C[C@@H]1n1cnc2c(N)ncnc21` came in with an EC50 in [1] of 0.128 µM.

For `Nc1nc(O)c2ncn(CCC(CO)CO)c2n1` [PENCICLOVIR], the EC50 in assay [1] was at least 100 µM.

As for `C=C1[C@H](CO)[C@@H](O)C[C@@H]1n1cc(I)c(=O)[nH]c1=O`, the EC50 in assay [1] is 10.5 µM.

In assay [1], `C=C1[C@H](CO)[C@@H](O)C[C@@H]1n1cc(C)c(=O)[nH]c1=O` registered an EC50 above 100 µM.
